Patent US20260265233A1, “BENZOTHIOPHENE DERIVATIVES AS RXFP1 AGONISTS” (BRISTOL-MYERS SQUIBB COMPANY, priority 2021, published 2026)
pEC50: −log10 of the molar value.

Molecular target: T1, human RXFP1 (Homo sapiens, UniProt Q9HBX9)
T1 construct: expressed in transfected cells
T1 sequence (Q9HBX9 1-757): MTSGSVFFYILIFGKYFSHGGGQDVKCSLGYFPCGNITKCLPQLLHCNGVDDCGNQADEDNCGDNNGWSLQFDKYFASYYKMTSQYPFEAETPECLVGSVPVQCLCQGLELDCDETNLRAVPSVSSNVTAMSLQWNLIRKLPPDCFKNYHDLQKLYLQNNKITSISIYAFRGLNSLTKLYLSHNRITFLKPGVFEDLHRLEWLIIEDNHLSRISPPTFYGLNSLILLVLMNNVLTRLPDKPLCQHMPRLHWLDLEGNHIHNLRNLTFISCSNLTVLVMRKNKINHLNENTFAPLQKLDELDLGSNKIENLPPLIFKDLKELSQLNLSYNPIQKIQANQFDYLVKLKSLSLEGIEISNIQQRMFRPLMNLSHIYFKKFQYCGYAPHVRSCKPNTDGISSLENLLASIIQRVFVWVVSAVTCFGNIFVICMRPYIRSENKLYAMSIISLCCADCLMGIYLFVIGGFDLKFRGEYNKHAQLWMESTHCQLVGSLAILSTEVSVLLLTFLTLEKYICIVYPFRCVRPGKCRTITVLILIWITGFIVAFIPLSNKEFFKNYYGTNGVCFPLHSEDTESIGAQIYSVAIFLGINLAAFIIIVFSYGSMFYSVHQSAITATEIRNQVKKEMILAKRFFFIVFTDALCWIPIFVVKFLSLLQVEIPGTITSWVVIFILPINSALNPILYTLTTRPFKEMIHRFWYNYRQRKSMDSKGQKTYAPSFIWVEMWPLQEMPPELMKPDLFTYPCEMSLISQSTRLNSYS
Experiment: hRXFP1 HEK293 cAMP assay (HTRF)
Format: cell-based
Conditions: HEK293 cells stably expressing human RXFP1; 30 min at rt; intracellular cAMP by HTRF
Method in brief: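 Agonism is measured as cAMP by HTRF, quantified from a standard curve via the 665/590 nm ratio and fitted with a four-parameter logistic equation. Compounds (0.010 nM to 50 μM final, 2% DMSO) were applied for 30 min at rt to human RXFP1-expressing HEK293 cells in assay buffer containing 0.5 mM IBMX.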

| SMILES | pEC50 |
| --- | --- |
| COc1ccc(C2CCN(C(=O)CCO)C2)cc1C(=O)Nc1c(C(=O)Nc2ccc(F)c(C(F)(F)F)c2)sc2cc(C(F)(F)F)ccc12 (stereo not drawn) [Example 137, N-(4-fluoro-3-(trifluoromethyl)phenyl)-3-(5-(1-(3-hydroxypropanoyl)pyrrolidin-3-yl)-2-methoxy-benzamido)-6-(trifluoromethyl) benzo[b] thiophene-2-carboxamide] | 6.23 |
| COc1ccc(C2CCN(C(=O)C3(O)CC3)C2)cc1C(=O)Nc1c(C(=O)Nc2ccc(F)c(C(F)(F)F)c2)sc2cc(C(F)(F)F)ccc12 (stereo not drawn) [Example 138, N-(4-fluoro-3-(trifluoromethyl)phenyl)-3-(5-(1-(1-hydroxycyclo-propane-1-carbonyl)pyrrolidin-3-yl)-2-methoxy-benzamido)-6-(trifluoromethyl) benzo[b] thiophene-2-carboxamide] | 6.67 |
| COc1ccc(C2CCN(C(=O)C(C)(C)O)C2)cc1C(=O)Nc1c(C(=O)Nc2ccc(F)c(C(F)(F)F)c2)sc2cc(C(F)(F)F)ccc12 (stereo not drawn) [Example 140, N-(4-fluoro-3-(trifluoromethyl)phenyl)-3-(5-(1-(2-hydroxy-2-methylpropanoyl)pyrrolidin-3-yl)-2-methoxy-benzamido)-6-(trifluoromethyl) benzo[b] thiophene-2-carboxamide] | 7.01 |
| COc1ccc(C2CCN(C(=O)CO)C2)cc1C(=O)Nc1c(C(=O)Nc2ccc(F)c(C(F)(F)F)c2)sc2cc(C(F)(F)F)ccc12 (stereo not drawn) [Example 141, N-(4-fluoro-3-(trifluoromethyl)phenyl)-3-(5-(1-(2-hydroxyacetyl)pyrrolidin-3-yl)-2-methoxy-benzamido)-6-(trifluoromethyl) benzo[b] thiophene-2-carboxamide] | 6.40 |
| COc1ccc(C2CCN(C3COC3)C2)cc1C(=O)Nc1c(C(=O)Nc2ccc(F)c(C(F)(F)F)c2)sc2cc(C(F)(F)F)ccc12 (stereo not drawn) [Example 142, N-(4-fluoro-3-(trifluoromethyl)phenyl)-3-(2-methoxy-5-(1-(oxetan-3-yl)pyrrolidin-3-yl)benzamido)-6-(trifluoromethyl) benzo[b] thiophene-2-carboxamide] | 6.21 |
| COCCC(=O)N1CCC(c2ccc(OC)c(C(=O)Nc3c(C(=O)Nc4ccc(F)c(C(F)(F)F)c4)sc4cc(C(F)(F)F)ccc34)c2)C1 (stereo not drawn) [Example 143, N-(4-fluoro-3-(trifluoromethyl)phenyl)-3-(2-methoxy-5-(1-(3-methoxypropanoyl)pyrrolidin-3-yl)benzamido)-6-(trifluoromethyl) benzo[b] thiophene-2-carboxamide] | 5.81 |
| COCC(=O)N1CCC(c2ccc(OC)c(C(=O)Nc3c(C(=O)Nc4ccc(F)c(C(F)(F)F)c4)sc4cc(C(F)(F)F)ccc34)c2)C1 (stereo not drawn) [Example 144, N-(4-fluoro-3-(trifluoromethyl)phenyl)-3-(2-methoxy-5-(1-(2-methoxyacetyl)pyrrolidin-3-yl)benzamido)-6-(trifluoromethyl) benzo[b] thiophene-2-carboxamide] | 5.84 |
| COc1ccc(C2CCN(C(=O)C(F)F)C2)cc1C(=O)Nc1c(C(=O)Nc2ccc(F)c(C(F)(F)F)c2)sc2cc(C(F)(F)F)ccc12 (stereo not drawn) [Example 145, 3-(5-(1-(2,2-difluoroacetyl)pyrrolidin-3-yl)-2-methoxy-benzamido)-N-(4-fluoro-3-(trifluoromethyl)phenyl)-6-(trifluoromethyl) benzo[b] thiophene-2-carboxamide] | 5.78 |
| COc1ccc(C2CCN(C(=O)CC#N)C2)cc1C(=O)Nc1c(C(=O)Nc2ccc(F)c(C(F)(F)F)c2)sc2cc(C(F)(F)F)ccc12 (stereo not drawn) [Example 146, 3-(5-(1-(2-cyanoacetyl)pyrrolidin-3-yl)-2-methoxy-benzamido)-N-(4-fluoro-3-(trifluoromethyl)phenyl)-6-(trifluoromethyl) benzo[b] thiophene-2-carboxamide] | 5.96 |
| COc1ccc(C2CCN(CC(N)=O)C2)cc1C(=O)Nc1c(C(=O)Nc2ccc(F)c(C(F)(F)F)c2)sc2cc(C(F)(F)F)ccc12 (stereo not drawn) [Example 147, 3-(5-(1-(2-amino-2-oxoethyl)pyrrolidin-3-yl)-2-methoxy-benzamido)-N-(4-fluoro-3-(trifluoromethyl)phenyl)-6-(trifluoromethyl) benzo[b] thiophene-2-carboxamide] | 5.84 |
| COc1ccc(C2CCN(S(C)(=O)=O)C2)cc1C(=O)Nc1c(C(=O)Nc2ccc(F)c(C(F)(F)F)c2)sc2cc(C(F)(F)F)ccc12 (stereo not drawn) [Example 148, N-(4-fluoro-3-(trifluoromethyl)phenyl)-3-(2-methoxy-5-(1-(methylsulfonyl)pyrrolidin-3-yl)benzamido)-6-(trifluoromethyl) benzo[b] thiophene-2-carboxamide] | 5.65 |
| COc1ccc(C2CCN(C(=O)C(C)(C)O)C2)cc1C(=O)Nc1c(C(=O)Nc2ccc(F)c(C(F)(F)F)c2)sc2cc(C(F)(F)F)ccc12 (stereo not drawn) [Example 151, N-(4-fluoro-3-(trifluoromethyl)phenyl)-3-(5-(1-(2-hydroxy-2-methylpropanoyl)pyrrolidin-3-yl)-2-methoxy-benzamido)-6-(trifluoromethyl) benzo[b] thiophene-2-carboxamide] | 6.68 |
| COc1ccc(C2CCN(C(=O)CO)C2)cc1C(=O)Nc1c(C(=O)Nc2ccc(F)c(C(F)(F)F)c2)sc2cc(C(F)(F)F)ccc12 (stereo not drawn) [Example 152, N-(4-fluoro-3-(trifluoromethyl)phenyl)-3-(5-(1-(2-hydroxyacetyl)pyrrolidin-3-yl)-2-methoxy-benzamido)-6-(trifluoromethyl) benzo[b] thiophene-2-carboxamide] | 6.21 |
| COc1ccc(C2CCN(C3COC3)C2)cc1C(=O)Nc1c(C(=O)Nc2ccc(F)c(C(F)(F)F)c2)sc2cc(C(F)(F)F)ccc12 (stereo not drawn) [Example 154, N-(4-fluoro-3-(trifluoromethyl)phenyl)-3-(2-methoxy-5-(1-(oxetan-3-yl)pyrrolidin-3-yl)benzamido)-6-(trifluoromethyl) benzo[b] thiophene-2-carboxamide] | 6.26 |
| COc1ccc(C2CCN(CC(N)=O)C2)cc1C(=O)Nc1c(C(=O)Nc2ccc(F)c(C(F)(F)F)c2)sc2cc(C(F)(F)F)ccc12 (stereo not drawn) [Example 155, 3-{5-[1-(carbamoyl-methyl)pyrrolidin-3-yl]-2-methoxy-benzamido}-N-[4-fluoro-3-(trifluoromethyl)phenyl]-6-(trifluoromethyl)-1-benzothiophene-2-carboxamide] | 6.04 |
| COc1ccc(C2CCN(CC(N)=O)C2)cc1C(=O)Nc1c(C(=O)Nc2ccc(F)c(C(F)(F)F)c2)sc2cc(C(F)(F)F)ccc12 (stereo not drawn) [Example 156, 3-(5-(1-(2-amino-2-oxoethyl)pyrrolidin-3-yl)-2-methoxy-benzamido)-N-(4-fluoro-3-(trifluoromethyl)phenyl)-6-(trifluoromethyl) benzo[b] thiophene-2-carboxamide] | 5.66 |
| COc1ccc(C2CC2C(C)(C)O)cc1C(=O)Nc1c(C(=O)Nc2ccc(F)c(C(F)(F)F)c2)sc2cc(C(F)(F)F)ccc12 (stereo not drawn) [Example 159, N-(4-fluoro-3-(trifluoromethyl)phenyl)-3-(5-(2-(2-hydroxypropan-2-yl)cyclopropyl)-2-methoxy-benzamido)-6-(trifluoromethyl) benzo[b] thiophene-2-carboxamide] | 6.70 |
| COc1ccc(C2CC2C(=O)N2CC(O)C2)cc1C(=O)Nc1c(C(=O)Nc2ccc(F)c(C(F)(F)F)c2)sc2cc(C(F)(F)F)ccc12 (stereo not drawn) [Example 162, N-(4-fluoro-3-(trifluoromethyl)phenyl)-3-(5-(2-(3-hydroxyazetidine-1-carbonyl)cyclopropyl)-2-methoxy-benzamido)-6-(trifluoromethyl) benzo[b] thiophene-2-carboxamide] | 6.53 |
| COc1ccc(C2CC2C(=O)N2CC(OC)C2)cc1C(=O)Nc1c(C(=O)Nc2ccc(F)c(C(F)(F)F)c2)sc2cc(C(F)(F)F)ccc12 (stereo not drawn) [Example 163, N-[4-fluoro-3-(trifluoromethyl)phenyl]-3-{2-methoxy-5-[2-(3-methoxyazetidine-1-carbonyl)cyclopropyl]benzamido}-6-(trifluoromethyl)-1-benzothiophene-2-carboxamide] | 6.18 |
| COc1ccc(C2CC2C(=O)N2CC(C(C)(C)O)C2)cc1C(=O)Nc1c(C(=O)Nc2ccc(F)c(C(F)(F)F)c2)sc2cc(C(F)(F)F)ccc12 (stereo not drawn) [Example 165, N-[4-fluoro-3-(trifluoromethyl)phenyl]-3-(5-{2-[3-(2-hydroxypropan-2-yl)azetidine-1-carbonyl]cyclopropyl}-2-methoxy-benzamido)-6-(trifluoromethyl)-1-benzothiophene-2-carboxamide] | 5.52 |
| COc1ccc(C2CC2C(=O)NCC(C)(C)O)cc1C(=O)Nc1c(C(=O)Nc2ccc(F)c(C(F)(F)F)c2)sc2cc(C(F)(F)F)ccc12 (stereo not drawn) [Example 166, N-[4-fluoro-3-(trifluoromethyl)phenyl]-3-(5-{2-[(2-hydroxy-2-methylpropyl)carbamoyl]cyclopropyl}-2-methoxy-benzamido)-6-(trifluoromethyl)-1-benzothiophene-2-carboxamide] | 5.79 |
